# Measured values reported in patent US11491145B2, “Combination therapies comprising targeted therapeutics” (priority 2017, dated 2022).
# Test: Average weight changes in H460 model
# Format: in vivo
# Details: SCID mice, tracked 21 days, weight loss also in vehicle group, FIG. 1B
# Protocol: In this study, each study group included 8 SCID mice with H460 xenograft. Each group received vehicle (once per week), talazoparib (0.3 mg/kg, one does per day for 4-5 days per week), SDC-TRAP-0063 (100 mg/kg, once per week), or a combination therapy of SDC-TRAP-0063 (100 mg/kg, once per week) and talazoparib (0.3 mg/kg, 5 days per week).
# Average weight changes were also tracked for 21 days and the results for the groups treated with talazoparib, SDC-TRAP-0063, and a combination of SDC-TRAP-0063 and talazoparib were shown in FIG. 1B.
structure (smiles),measurement,value
"Cn1ncnc1[C@H]1c2n[nH]c(=O)c3cc(F)cc(c23)N[C@@H]1c1ccc(F)cc1 [talazoparib, Talazoparib]",average weight changes (weight loss),Weight loss was observed
